Assays:
Assay type in all cases: in vivo, rat
[1] = test system: Interferon Regulatory Factor 8 (IRF8); test: IRF8 protein expression in T1-T4 DRGs and stellate ganglia after bleomycin lung injury; conditions: 4-weeks post-bleomycin rats
vagotomized rats = test: Pressor and sympatho-excitatory response to topical bradykinin in bleomycin-treated rats; conditions: BK 10 μg/ml; 4 weeks after bleomycin, compared to sham
Protocol: For measuring vitals of the rats, a Millar catheter (SPR 524; size, 3.5-Fr; Millar Instruments, Houston, TX) was advanced through the right common carotid artery and progressed into the aorta and left in place to record arterial pressure (AP), mean arterial pressure (MAP), and heart rate (HR), using PowerLab (Model 16S) and LabChart software (version 7.0) (ADInstruments, Colorado Springs, CO). Renal sympathetic nerve activity (RSNA) and integrated RSNA (iRSNA) were also measured. RSNA was recorded as described (Gao, et al. (2005) Hypertension 45:1173-1181; Wang, et al. (2010) J. Appl. Physiol., 108:1365-1375; Becker, et al. (2016) J. Physiol., 594:5711-5725). In brief, the left kidney, renal artery, and nerves were exposed through a left retroperitoneal flank incision. Sympathetic nerves running on or beside the renal artery were identified. The renal sympathetic nerves were placed on a pair of platinum-iridium recording electrodes and cut distally to avoid recording afferent activity. Nerve activity was amplified ([…]) and filtered (bandwidth: 100 to 3000 Hz) using a Grass P55C preamplifier. […] At the end of the experiment, the rat was euthanized with an overdose of pentobarbital sodium. Respective noise levels were subtracted from the nerve recording data before percent changes from baseline were calculated. […]

rats = test: Premature ventricle contractions after intra-tracheal bleomycin; conditions: single intra-tracheal delivery 2.5 mg/kg
Source text: Bleomycin induces experimental lung fibrosis in a variety of animal models and it causes inflammatory and fibrotic reactions within a short period of time, even more so after intratracheal instillation.

Substance: bleomycin
- IRF8 protein expression in T1-T4 DRGs and stellate ganglia (FIG. 12) [1]: increases
- pressor and sympatho-excitatory response to topical BK (FIG. 13) (vagotomized rats): exaggerated pressor and sympatho-excitatory response
- premature ventricle contractions (PVC) (FIG. 14) (rats): dramatic increase
